Laboratory results taken from paper PMC10136147, “Bacillus subtilis YtpP and Thioredoxin A Are New Players in the Coenzyme-A-Mediated Defense Mechanism against Cellular Stress” (Antioxidants, 2023).

How the values were obtained:
PRDX5 = target: T1, PRDX5 (Homo sapiens, UniProt P30044); experiment: anti-CoA Western blot after in vitro CoAlation; type: binding; conditions: covalent mixed disulfide with cysteine; protein:CoA:H2O2 1:3:10, RT, 30 min; monomer and oligomer bands
T1 sequence (P30044 54-214): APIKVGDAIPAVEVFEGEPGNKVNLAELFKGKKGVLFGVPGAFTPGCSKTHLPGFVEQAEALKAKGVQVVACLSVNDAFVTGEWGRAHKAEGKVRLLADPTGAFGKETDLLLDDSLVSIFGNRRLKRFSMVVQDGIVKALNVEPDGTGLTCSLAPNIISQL

YtpP [1] = target: YtpP (Bacillus subtilis, UniProt O34357, C28S); experiment: anti-CoA Western blot after incubation with CoAlated protein; type: binding; conditions: covalent; CoA transferred from the CoAlated protein, 30 min, 37 C
YtpP (Bacillus subtilis, UniProt O34357, C28S), sequence (O34357 whole entry C28S): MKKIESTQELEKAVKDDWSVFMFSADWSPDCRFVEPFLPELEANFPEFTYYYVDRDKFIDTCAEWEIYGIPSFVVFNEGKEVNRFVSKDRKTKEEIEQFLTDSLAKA

TrxA = target: T2, TrxA (Bacillus subtilis, UniProt P14949); experiment: HPLC ([…] nm) of released CoA; anti-CoA Western blot; type: biochemical; conditions: CoA released from 6 uM CoA-MsrA or CoA-PRDX5 by 60 uM enzyme, 1 h, 37 C
T2 construct: about 11 kDa, N-terminal 6xHis tag (pET28a), E. coli BLR(DE3)
T2 sequence (P14949 1-104): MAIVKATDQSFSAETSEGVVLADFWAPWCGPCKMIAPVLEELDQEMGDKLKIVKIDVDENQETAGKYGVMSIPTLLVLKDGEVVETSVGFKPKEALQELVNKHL

GAPDH = target: T3, GAPDH (Staphylococcus aureus, UniProt Q6GIL8); experiment: anti-CoA ELISA and Western blot after in vitro CoAlation; type: binding; conditions: covalent mixed disulfide with cysteine; protein:CoA:H2O2 1:3:10, RT, 30 min; reversed by 10 mM DTT
T3 construct: gene gapA1
T3 sequence (Q6GIL8 1-336): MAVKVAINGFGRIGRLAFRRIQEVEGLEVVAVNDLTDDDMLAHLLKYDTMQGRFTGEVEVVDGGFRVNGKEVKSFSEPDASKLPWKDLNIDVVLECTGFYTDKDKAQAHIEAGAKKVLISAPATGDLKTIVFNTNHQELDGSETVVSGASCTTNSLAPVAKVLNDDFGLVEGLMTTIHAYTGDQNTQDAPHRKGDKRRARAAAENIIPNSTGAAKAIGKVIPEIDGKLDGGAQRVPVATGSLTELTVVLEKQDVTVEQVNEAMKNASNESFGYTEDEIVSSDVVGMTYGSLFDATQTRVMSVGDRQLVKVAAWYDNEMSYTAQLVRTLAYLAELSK

MsrA = target: T4, MsrA (Corynebacterium diphtheriae, UniProt Q6NEL2); experiment: anti-CoA Western blot after in vitro CoAlation; type: binding; conditions: covalent mixed disulfide with cysteine; protein:CoA:H2O2 1:3:10, RT, 30 min; monomer and oligomer bands
T4 construct: 26 kDa
T4 sequence (Q6NEL2 1-220): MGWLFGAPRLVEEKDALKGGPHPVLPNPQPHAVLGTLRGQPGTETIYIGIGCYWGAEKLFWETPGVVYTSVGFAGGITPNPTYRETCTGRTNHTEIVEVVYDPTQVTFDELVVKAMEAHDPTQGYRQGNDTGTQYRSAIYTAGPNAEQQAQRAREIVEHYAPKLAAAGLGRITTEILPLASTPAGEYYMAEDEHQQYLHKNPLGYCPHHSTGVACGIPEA

YtpP [2] = target: T5, YtpP (Bacillus subtilis, UniProt O34357); experiment: HPLC ([…] nm) of released CoA; anti-CoA Western blot; type: biochemical; conditions: CoA released from 6 uM CoA-MsrA or CoA-PRDX5 by 60 uM enzyme, 1 h, 37 C
T5 sequence (O34357 1-107): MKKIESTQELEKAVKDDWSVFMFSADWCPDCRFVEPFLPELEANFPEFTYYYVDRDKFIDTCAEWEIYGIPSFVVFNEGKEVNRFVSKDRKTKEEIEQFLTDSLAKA

SMILES: CC(C)(COP(=O)(O)OP(=O)(O)OC[C@H]1O[C@@H](n2cnc3c(N)ncnc32)[C@H](O)[C@@H]1OP(=O)(O)O)[C@@H](O)C(=O)NCCC(=O)NCCS [CoA]
- anti-CoA Western blot after in vitro CoAlation (PRDX5): anti-CoA WB was used to confirm the CoAlation of both proteins
- anti-CoA Western blot after incubation with CoAlated protein (YtpP [1]): “Δ” represents either CoAlated YtpP C28S or YtpP C31S, or CoAlated TrxA C29S
- HPLC (254 nm) of released CoA; anti-CoA Western blot (TrxA): Following deCoAlation of both substrates by YtpP and TrxA, CoA release was monitored.
- anti-CoA ELISA and Western blot after in vitro CoAlation (GAPDH): high signal was recorded due to the detection of CoA on the CoAlated protein
- anti-CoA Western blot after in vitro CoAlation (MsrA): anti-CoA WB was used to confirm the CoAlation of both proteins
- HPLC (254 nm) of released CoA; anti-CoA Western blot (YtpP [2]): Following deCoAlation of both substrates by YtpP and TrxA, CoA release was monitored.
